In PubChem BioAssay (NCI):
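How tested: cells in 96-well plates exposed to compound for 48 hours at five concentrations. GI50 is the concentration that inhibits growth by half. At the TGI there is no net growth.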

Experiments:
Experiment in all cases: growth of human tumour cells (NCI), 48 h
ACHN renal = tested on: ACHN renal
COLO 205 colon = tested on: COLO 205 colon
CAKI-1 renal = tested on: CAKI-1 renal
HCC-2998 colon = tested on: HCC-2998 colon
A549 NSCLC = tested on: A549 NSCLC
SK-MEL-5 melanoma = tested on: SK-MEL-5 melanoma
UO-31 renal = tested on: UO-31 renal
MALME-3M melanoma = tested on: MALME-3M melanoma
CCRF-CEM leukemia = tested on: CCRF-CEM leukemia
SNB-75 CNS = tested on: SNB-75 CNS
786-0 renal = tested on: 786-0 renal
EKVX NSCLC = tested on: EKVX NSCLC
OVCAR-5 ovarian = tested on: OVCAR-5 ovarian
HOP-62 NSCLC = tested on: HOP-62 NSCLC
NCI/ADR-RES ovarian = tested on: NCI/ADR-RES ovarian
NCI-H460 lung = tested on: NCI-H460 lung
SK-MEL-28 melanoma = tested on: SK-MEL-28 melanoma
NCI-H226 lung = tested on: NCI-H226 lung
IGROV1 ovarian = tested on: IGROV1 ovarian
T-47D breast = tested on: T-47D breast
SW-620 colon = tested on: SW-620 colon
KM12 colon = tested on: KM12 colon
HS 578T breast = tested on: HS 578T breast
MOLT-4 leukemia = tested on: MOLT-4 leukemia
HCT-15 colon = tested on: HCT-15 colon
UACC-62 melanoma = tested on: UACC-62 melanoma
BT-549 breast = tested on: BT-549 breast
RXF 393 renal = tested on: RXF 393 renal
HCT-116 colon = tested on: HCT-116 colon
MDA-MB-231 breast = tested on: MDA-MB-231 breast
OVCAR-8 ovarian = tested on: OVCAR-8 ovarian
SF-268 CNS = tested on: SF-268 CNS
NCI-H522 lung = tested on: NCI-H522 lung
K-562 leukemia = tested on: K-562 leukemia
NCI-H23 lung = tested on: NCI-H23 lung
OVCAR-3 ovarian = tested on: OVCAR-3 ovarian
DU-145 prostate = tested on: DU-145 prostate
SF-539 CNS = tested on: SF-539 CNS
HT29 colon = tested on: HT29 colon
M14 melanoma = tested on: M14 melanoma
SF-295 CNS = tested on: SF-295 CNS
PC-3 prostate = tested on: PC-3 prostate
SNB-19 CNS = tested on: SNB-19 CNS
TK-10 renal = tested on: TK-10 renal
MCF7 breast = tested on: MCF7 breast
RPMI-8226 leukemia = tested on: RPMI-8226 leukemia
SR leukemia = tested on: SR leukemia
LOX IMVI melanoma = tested on: LOX IMVI melanoma
A498 renal = tested on: A498 renal
OVCAR-4 ovarian = tested on: OVCAR-4 ovarian
MDA-MB-435 = tested on: MDA-MB-435
SN12C renal = tested on: SN12C renal
HL-60(TB) leukemia = tested on: HL-60(TB) leukemia
SK-MEL-2 melanoma = tested on: SK-MEL-2 melanoma
UACC-257 melanoma = tested on: UACC-257 melanoma
SK-OV-3 ovarian = tested on: SK-OV-3 ovarian
HOP-92 NSCLC = tested on: HOP-92 NSCLC
U251 CNS = tested on: U251 CNS

CC(C)(C)c1ccc(O)c(C(O)c2cccnc2)c1 (centres undefined)
TGI (ACHN renal): > 100000 nM | TGI (COLO 205 colon): > 100000 nM | TGI (CAKI-1 renal): > 100000 nM | TGI (HCC-2998 colon): > 100000 nM | TGI (A549 NSCLC): > 100000 nM | TGI (SK-MEL-5 melanoma): > 100000 nM | TGI (UO-31 renal): > 100000 nM | TGI (MALME-3M melanoma): > 100000 nM | TGI (CCRF-CEM leukemia): > 100000 nM | TGI (SNB-75 CNS): > 100000 nM | TGI (786-0 renal): > 100000 nM | TGI (EKVX NSCLC): > 100000 nM | TGI (OVCAR-5 ovarian): > 100000 nM | TGI (HOP-62 NSCLC): > 100000 nM | TGI (NCI/ADR-RES ovarian): > 100000 nM | TGI (NCI-H460 lung): > 100000 nM | TGI (SK-MEL-28 melanoma): > 100000 nM | TGI (NCI-H226 lung): > 100000 nM | TGI (IGROV1 ovarian): > 100000 nM | TGI (T-47D breast): 53700 nM | TGI (SW-620 colon): > 100000 nM | TGI (KM12 colon): > 100000 nM | TGI (HS 578T breast): > 100000 nM | TGI (MOLT-4 leukemia): > 100000 nM | TGI (HCT-15 colon): > 100000 nM | TGI (UACC-62 melanoma): > 100000 nM | TGI (BT-549 breast): > 100000 nM | TGI (RXF 393 renal): > 100000 nM | TGI (HCT-116 colon): > 100000 nM | TGI (MDA-MB-231 breast): > 100000 nM | TGI (OVCAR-8 ovarian): > 100000 nM | TGI (SF-268 CNS): > 100000 nM | TGI (NCI-H522 lung): > 100000 nM | TGI (K-562 leukemia): > 100000 nM | TGI (NCI-H23 lung): > 100000 nM | TGI (OVCAR-3 ovarian): > 100000 nM | TGI (DU-145 prostate): > 100000 nM | TGI (SF-539 CNS): > 100000 nM | TGI (HT29 colon): > 100000 nM

Nc1nc(Nc2ccc3c(c2)CCC(N2CCCC2)CC3)nn1-c1cc2c(nn1)-c1ccccc1CCC2 (centres undefined)
GI50 (M14 melanoma): 957 nM | TGI (M14 melanoma): 2270 nM | GI50 (ACHN renal): 346 nM | TGI (ACHN renal): 1590 nM | GI50 (COLO 205 colon): 1560 nM | TGI (COLO 205 colon): 3110 nM | GI50 (CAKI-1 renal): 531 nM | TGI (CAKI-1 renal): 2050 nM | GI50 (HCC-2998 colon): 1550 nM | TGI (HCC-2998 colon): 2970 nM | GI50 (SF-295 CNS): 1850 nM | TGI (SF-295 CNS): 3540 nM | GI50 (A549 NSCLC): 1320 nM | TGI (A549 NSCLC): 2920 nM | GI50 (PC-3 prostate): 629 nM | TGI (PC-3 prostate): 2140 nM | GI50 (SNB-19 CNS): 1600 nM | TGI (SNB-19 CNS): 3400 nM | GI50 (TK-10 renal): 1140 nM | TGI (TK-10 renal): 2610 nM | GI50 (SK-MEL-5 melanoma): 1450 nM | TGI (SK-MEL-5 melanoma): 2780 nM | GI50 (MCF7 breast): 1350 nM | TGI (MCF7 breast): 2790 nM | GI50 (UO-31 renal): 668 nM | TGI (UO-31 renal): 2130 nM | GI50 (MALME-3M melanoma): 1420 nM | TGI (MALME-3M melanoma): 3090 nM | GI50 (CCRF-CEM leukemia): 1240 nM | TGI (CCRF-CEM leukemia): 4670 nM | GI50 (SNB-75 CNS): 792 nM | TGI (SNB-75 CNS): 2180 nM | GI50 (786-0 renal): 1100 nM | TGI (786-0 renal): 2490 nM | GI50 (OVCAR-5 ovarian): 1390 nM | TGI (OVCAR-5 ovarian): 2760 nM | GI50 (RPMI-8226 leukemia): 1400 nM | TGI (RPMI-8226 leukemia): 3810 nM | GI50 (HOP-62 NSCLC): 1500 nM | TGI (HOP-62 NSCLC): 3110 nM | GI50 (NCI-H460 lung): 1080 nM | TGI (NCI-H460 lung): 2630 nM | GI50 (SR leukemia): 420 nM | TGI (SR leukemia): 2370 nM | GI50 (SK-MEL-28 melanoma): 1610 nM | TGI (SK-MEL-28 melanoma): 3010 nM | GI50 (LOX IMVI melanoma): 1340 nM | TGI (LOX IMVI melanoma): 2690 nM | GI50 (A498 renal): 274 nM | TGI (A498 renal): 1240 nM | GI50 (IGROV1 ovarian): 455 nM | TGI (IGROV1 ovarian): 1810 nM | GI50 (OVCAR-4 ovarian): 1150 nM | TGI (OVCAR-4 ovarian): 2560 nM | GI50 (MDA-MB-435): 1320 nM | TGI (MDA-MB-435): 2740 nM | GI50 (T-47D breast): 1750 nM | TGI (T-47D breast): 3950 nM | GI50 (SN12C renal): 378 nM | TGI (SN12C renal): 1810 nM | GI50 (SW-620 colon): 1310 nM | TGI (SW-620 colon): 3170 nM | GI50 (KM12 colon): 1020 nM | TGI (KM12 colon): 2730 nM | GI50 (HL-60(TB) leukemia): 1010 nM | TGI (HL-60(TB) leukemia): 2750 nM | GI50 (SK-MEL-2 melanoma): 1040 nM | TGI (SK-MEL-2 melanoma): 2530 nM | GI50 (HS 578T breast): 1080 nM | TGI (HS 578T breast): 3660 nM | GI50 (MOLT-4 leukemia): 681 nM | TGI (MOLT-4 leukemia): 2860 nM | GI50 (UACC-257 melanoma): 1700 nM | TGI (UACC-257 melanoma): 3360 nM | GI50 (HCT-15 colon): 839 nM | TGI (HCT-15 colon): 2140 nM | GI50 (UACC-62 melanoma): 1500 nM | TGI (UACC-62 melanoma): 3070 nM | GI50 (BT-549 breast): 1520 nM | TGI (BT-549 breast): 3010 nM | GI50 (RXF 393 renal): 631 nM | TGI (RXF 393 renal): 1870 nM | GI50 (SK-OV-3 ovarian): 895 nM | TGI (SK-OV-3 ovarian): 2220 nM | GI50 (HCT-116 colon): 754 nM | TGI (HCT-116 colon): 2020 nM | GI50 (HOP-92 NSCLC): 234 nM | TGI (HOP-92 NSCLC): 1690 nM | GI50 (MDA-MB-231 breast): 1460 nM | TGI (MDA-MB-231 breast): 3040 nM | GI50 (OVCAR-8 ovarian): 1140 nM | TGI (OVCAR-8 ovarian): 2850 nM | GI50 (SF-268 CNS): 1250 nM | TGI (SF-268 CNS): 3070 nM | GI50 (NCI-H522 lung): 1710 nM | TGI (NCI-H522 lung): 3270 nM | GI50 (K-562 leukemia): 701 nM | TGI (K-562 leukemia): 2480 nM | GI50 (NCI-H23 lung): 1710 nM | TGI (NCI-H23 lung): 3720 nM | GI50 (OVCAR-3 ovarian): 1400 nM | TGI (OVCAR-3 ovarian): 2930 nM | GI50 (U251 CNS): 1090 nM | TGI (U251 CNS): 2390 nM | GI50 (DU-145 prostate): 1040 nM | TGI (DU-145 prostate): 2360 nM | GI50 (SF-539 CNS): 787 nM | TGI (SF-539 CNS): 2100 nM | GI50 (HT29 colon): 667 nM | TGI (HT29 colon): 2600 nM
